The source of these data is publication PMC5404560, “Towards Selective Mycobacterial ClpP1P2 Inhibitors with Reduced Activity against the Human Proteasome” (Antimicrobial Agents and Chemotherapy, 2017).

The nature of series [1]: MTS cytotoxicity assay, Vero. Format: cell-based. As to conditions: African green monkey. As for the experimental part: (§1) The MTS (Promega) reduction assay was used according to manufacturer's guidelines to assess Vero (ATCC […]) and HepG2 (ATCC HB-8065) cell viability. […] Carbonyl cyanide m-chlorophenylhydrazone (CCCP) was used as a cytotoxic positive control. Cytotoxicity was determined twice in independent experiments.
A general note: Formazan colour is commonly taken as a measure of viable cells.

A short description of series [2]: MTS cytotoxicity assay, HepG2. Format: cell-based, human. As to conditions: human. As for the experimental part:
as §1

The subject of the next series is M. smegmatis ΔprcAB. Format: cell-based. The note with it: 24 h exposure, OD600; concentration inhibiting 50% of growth.
In the next series the test system is Mycobacterium bovis BCG. The series is described as follows: microbe, parasite or virus in culture. Format: cell-based. The note with it: Mycobacterium tuberculosis variant bovis BCG, read-out: MIC50 for Mycobacterium bovis BCG.
The test system of a further series is M. smegmatis wild-type. The series is described as follows: Growth inhibition, M. smegmatis wild type. Format: cell-based. The note with it: Mycolicibacterium smegmatis; wild-type strain.
In the next series the test system is M. tuberculosis H37Rv. The series can be described thus: microbe, parasite or virus in culture. The note with it: Mycobacterium tuberculosis, H37RV, 120 h, 5 days. Format: cell-based.
A further series has as its target ClpP1P2 (Mycolicibacterium smegmatis, UniProt A0R197+A0R198). The series is described as follows: ClpP1P2 inhibition whole-cell RFP-SsrA reporter assay. As to conditions: read-out: M. smegmatis ΔprcAB IC50 (μM) for ClpP1P2; whole-cell RFP-SsrA reporter, 3 h incubation.

As usually defined, the GI50 is the concentration at which growth is held to half of that of the control. What is called IC50 is the concentration needed to halve the response being measured.

Values after ≈ are worked out from the molar mass of the structure shown.

Chain of ClpP1P2 (A0R198 4-203): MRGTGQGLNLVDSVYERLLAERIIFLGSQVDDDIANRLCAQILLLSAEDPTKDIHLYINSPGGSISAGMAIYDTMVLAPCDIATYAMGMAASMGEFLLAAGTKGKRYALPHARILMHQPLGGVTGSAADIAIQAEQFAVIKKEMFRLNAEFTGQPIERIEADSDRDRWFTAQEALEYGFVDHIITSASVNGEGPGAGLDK
Chain of ClpP1P2 (A0R197 17-218): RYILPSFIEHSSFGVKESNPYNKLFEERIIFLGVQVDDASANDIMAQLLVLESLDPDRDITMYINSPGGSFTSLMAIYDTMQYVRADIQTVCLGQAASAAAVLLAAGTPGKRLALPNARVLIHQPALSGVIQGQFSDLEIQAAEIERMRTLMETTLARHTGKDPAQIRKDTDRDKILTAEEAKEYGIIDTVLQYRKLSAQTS

Take `CC(C)C[C@H](NC(=O)[C@H](Cc1ccccc1)NC(=O)c1cnccn1)B(O)O` [Compound 1, bortezomib, reference compound]: the GI50 in series [1] turned out to be 250 µM; in series [2] it was 400 µM. Moreover, the “M. smegmatis ΔprcAB MIC50” value in the series on M. smegmatis ΔprcAB was 6 ± 0 µM. Further, the values for the MIC50 in the series with Mycobacterium bovis BCG, with M. smegmatis wild-type and in the series with M. tuberculosis H37Rv (read-out: MIC50 (μM) against M. tuberculosis H37Rv) were 1.8 µM (≈ 0.692 µg/mL), 5 µM (≈ 1.92 µg/mL) and 4.3 ± 1.3 µM (≈ 1.65 µg/mL), respectively. Further, the MIC90 in the series with M. tuberculosis H37Rv (read-out: MIC90 (μM) against M. tuberculosis H37Rv) was determined as 12 ± 0.5 µM (≈ 4.61 µg/mL). For the same compound, the IC50 at ClpP1P2 was 6 ± 0.5 µM.
